Source: US20200129450A1, “COMPOSITION COMPRISING OSMUNDACETONE OR PHARMACEUTICALLY ACCEPTABLE SALT THEREOF FOR PREVENTING OR TREATING BONE DISEASE” (KORPHARM CO., LTD., priority 2016, published 2020)

Legend:
[1] = tested on: osteoclasts differentiated from mouse bone marrow cells; assay: TRAP assay, osteoclast proliferation and differentiation inhibitory activity; format: cell-based
Protocol: Bone marrow cells were collected from the femur and shin bones of 5-8 week old male C57BL/6 mice. Muscles were removed from the bones, and stored in cold phosphate buffered saline (PBS; # CAP08-050, GenDEPOT, Katy, Tex., USA).
Both ends of each bone were cut, and the bone marrow was flushed with a flushing medium (serum-free α-MEM, 2 mM ethylenediaminetetraacetic acid) kept cool, using a 25 G needle.
Bone marrow cells were collected by centrifugation at 3,000 rpm for 3 min using Labogene 1248R (Labogene, Lynge, Denmark), and then resuspended in a wash medium. Thereafter, 8 mL of the collected bone marrow cells were overlaid on 6 mL of a lymphocyte isolation medium (LSM; #50494, MP Biomedicals, Santa Ana, Calif., USA), followed by centrifugation at 1,600 rpm for 20 minutes, thereby isolating mononuclear cells.
The mononuclear cell bands were collected from the media interface, and incubated using complete α-MEM (containing 10% fatal bovine serum (FBS; Capricorn Scientific, Ebsdorfergrund, Germany) and 1% (v/v) antibiotic (including 100 U/mL penicillin G and […] streptomycin)) in the conditions of 37° C. and 5% CO2 while the medium was exchanged every three days.
In order to promote the differentiation of osteoclasts, 1×10^5 cells were incubated in 0.5 mL of the medium per well in a 48-well plate, in the presence of osteoclast differentiation factors, M-CSF (60 ng/mL) and RANKL (150 ng/mL), purchased from PeproTec (Seoul, Korea). As known, macrophages/monocytes derived from one bone marrow differentiated into mature multinucleated osteoclasts after 6 days (Gurt et al., 2015).
The tibia and femur of 6-8 week old male C57BL/6 mice were aseptically resected, and bone marrow cells were aseptically collected using a syringe (21 G, Korea Green Cross). The bone marrow cells were floated in 500 μL of α-MEM medium (Gibco BRL Co.) containing sodium bicarbonate (2.0 g/L), streptomycin (100 mg/L), and penicillin ([…]), dispensed in a 48-well plate, and assayed in triplicate. Mononuclear cells as precursor cells of osteoclasts were treated with RANKL and M-CSF as differentiation promoting factors, and thus differentiated into osteoclasts within 5-7 days.
2-1) Sample preparation: The hot-water extract, EA extract, or fraction of Osmunda japonica were prepared by the same methods as in section 1 of <Example 1>. The EA-2 extract was dissolved in a minimum amount of DMSO, and then diluted with water to 70% of the original volume of the hot-water extract assuming that the yield of EA-2 extraction was approximately 70%. 2-2) Sample administration: The sample was continuously administered to a medium at 1:20 (v/v; 25 μL of the sample per 500 μL of the medium) from day 1 of incubation of bone marrow cells, while the medium was exchanged every 2-3 days. 2-3) Measurement of osteoclast differentiation Osteoclasts were defined by TRAP-positive multinucleated cells stained with TRAP. As for TRAP stain solution, 5 mg of naphthol AS-MS phosphate (Sigma N-4875) as a base and 25 mg of Fast Red Violet LB salt as a color developing reagent were dissolved in about 0.5 mL of N,N-dimethylformamide, and then mixed with 0.1N NaHCO3 buffer solution (50 mL) containing 50 mM tartaric acid. The reaction reagent was stored in a refrigerator before use.
After bone marrow cells were incubated in a medium containing differentiation promoting factors for 7 days, the medium was removed, and the cells were washed with PBS, and then immobilized with PBS containing 10% formalin for 2-5 minutes. Thereafter, the cells were immobilized with a 1:1 mixture solution of ethanol and acetone, followed by drying. The immobilized cells were treated with the TRAP stain solution for 15 minutes, and washed with PBS, and then the degree of cell staining was observed by a microscope.
In the microscope field of view, cells having two or more nuclei in the TRAP-positive cells were determined to be osteoclasts, and the number of cells was measured. […]

ALP activity in MC3T3-E1 = assay: Measurement of ALP activity in MC3T3-E1; format: cell-based, mouse; conditions: 1 μM (positive control, printed in the 10 μM column), MC3T3-E1
Protocol: ALP activity was assessed using Quantichrom ALP Assay Kit (Bioassay Systems, Hayward, Calif., USA) according to manufacturer's instructions.
Briefly, 3×10^3 MC3T3-E1 cells were dispensed in a 96-well plate together with […] of complete α-MEM containing ascorbic acid (50 μg/mL) and 10 mM β-glycerophosphate per well. Here, osmundacetone (10 μM and 50 μM) was added or not added, and the medium was exchanged every 3-4 days.
On day 14 of the incubation, the colorimetric change due to ALP activity in the cell fraction was measured using a spectrophotometer plate reader (Molecular Devices, Sunnyvale, Calif., USA) at 405 nm (Kim et al., 2016). The % activation of ALP activity was shown by comparing ALP activity of cells treated with an experimental compound and ALP activity of the non-treated control cells.

| Compound | formation of giant osteoclasts, number compared with the positive control group ([1]; 1 μM) | IC50 ([1]; Mus musculus, Osteoclast, tested at 1, 4, 7 and 10 μM, TRAP-positive multinucleated cells) | % Activation of ALP activity (ALP activity in MC3T3-E1) |
| --- | --- | --- | --- |
| NCCCC(O)(P(=O)(O)O)P(=O)(O)O [Fosamax, alendronate, reference compound] | smaller compared with the positive control group | ≤ 4 µM |  |
| Parathyroid hormone-related peptide [reference compound] |  |  | 138 ± 19% |
